The text below walks through data of article doi:10.1101/2025.06.18.657655, “Fibulin-4 is highly expressed in metastatic breast cancer and can serve as a target of peptide-based imaging probes and experimental therapeutics” (bioRxiv, 2025).

In data set [1] the test system is HEK293 cells ectopically expressing FBLN4. In words: Fluorescent peptide binding to HEK293 cells. The following applies: Figure S2A. It counts as cell-based.
Data set [2] concerns invasive and metastatic cancer cells in tissue sections. In words: Overlay assay on paraffin tissue sections. As for the experimental part:
Octet binding assays were performed with an Octet RED96 system (ForteBio) as described ([13]). Briefly, the peptides were loaded onto streptavidin resin-coated biosensors (Sartorius Lab, 18–5019) at a concentration of 20 ug/ml in 1x kinetic buffer for 5 min. […] For all experiments, Ka (1/Ms) and Kd (1/s) were measured. FortéBio’s data analysis software was employed to fit the binding curve to a 1:1 binding model in order to extract association and dissociation rates. Overlay assay on tissues was performed by incubating AZDye555-BLMP6 (12.5 ug/ml) for 2 hr and washing with PBS before fixation with 4% paraformaldehyde.

Data set [3] concerns the target T1, FBLN4 (Mus musculus, UniProt Q9WVJ9).
T1 construct: proteins extracted from 4T1 cells were incubated with beads pre-loaded with BLMP6; endogenous in cells; host or cells: 4T1 mouse breast cancer cells
T1 sequence (Q9WVJ9 28-443): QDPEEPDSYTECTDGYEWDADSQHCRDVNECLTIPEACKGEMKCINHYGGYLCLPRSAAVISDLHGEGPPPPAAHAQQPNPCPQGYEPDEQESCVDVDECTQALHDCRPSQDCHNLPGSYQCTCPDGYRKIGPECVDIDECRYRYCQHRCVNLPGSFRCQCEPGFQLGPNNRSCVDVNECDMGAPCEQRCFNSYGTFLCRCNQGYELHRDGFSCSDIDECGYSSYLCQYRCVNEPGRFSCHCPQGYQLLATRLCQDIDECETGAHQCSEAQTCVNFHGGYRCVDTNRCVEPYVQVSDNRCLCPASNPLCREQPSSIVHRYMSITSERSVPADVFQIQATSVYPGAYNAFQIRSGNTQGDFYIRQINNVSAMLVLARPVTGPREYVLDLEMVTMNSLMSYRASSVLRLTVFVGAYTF
Put plainly: Affinity purification of FBLN4 from 4T1 cell extract on BLMP6-loaded beads. The class given is binding. Particulars: biotinylated BLMP6 immobilized on streptavidin-coated beads; not isolated on control beads. As for the experimental part: To test if BLMP6 binds to FBLN4 in vitro, we used Octet to perform the biolayer interferometry assay. […] To confirm BLMP6 binding to FBLN4 expressed by cancer cells, proteins extracted from 4T1 cells were incubated with beads pre-loaded with BLMP6. […] To confirm BLMP6 binding to FBLN4 in a genetic model, we used CRISPR/Cas9 to make 4T1 FBLN4 knockout (KO) cells confirmed by RT-PCR (Figure 1E). FBLN4-KO and control 4T1-luc cells were grafted into mice, and once metastases were detected by bioluminescence, phage displaying BLMP6 ([6]) was injected. After 30 min of circulation, heart perfusion was performed, and lungs were recovered. Section histopathology confirmed metastasis formation in all lungs, indicating FBLN4 expression is not required for cancer cell colonization and growth at the secondary site.

Data set [4] is described as follows: Stability in mouse serum. It counts as in vitro ADME. Particulars: Figure S4B-C. The source says: To test MMAE-BLMP6 efficacy in vivo, we first analyzed its stability in mouse serum. […] We then used the experimental lung metastasis model of B16F10 cells injected intravenously to produce lung metastases.
Data set [5] deals with B16F10 lung metastases. In words: B16F10 experimental lung metastasis model, treatment. The class given is in vivo, mouse. The following applies: B16F10-luc iv. The source says: (§1) Animal studies were approved by the IACUC of UTHealth. Spontaneous cancer progression to metastases was modeled by injecting 2×10^4 4T1 cells into the mammary fat pad of 10-week-old female Balb/c mice (Jackson Laboratory) with a 31-gauge needle. Metastatic progression was monitored with bioluminescence imaging. For lung metastasis modeling, Balb/c mice were tail vein-injected with 2.5×10^5 4T1-luc WT or FBLN4-KO cells, C57BL/6 mice (Jackson) were tail vein-injected with 1×10^5 B16F10 cells, and athymic Nude-Foxn1nu (Envigo) mice were tail vein-injected with 1×10^5 MDA-MB-231-luc-GFP cells. For phage-peptide homing analysis, mice were injected into the tail vein with 5×10^10 transducing units (TU) of phage-BLMP6 ([6]). After 30 min of circulation, heart perfusion with 10 ml of PBS was performed and lung sections were processed. For PET imaging studies, mice were intravenously injected with 7.4 MBq (200 μCi, 5 nmol) of ^68Ga-labeled DOTA-BLMP6 and imaged 45–60 min later using Albira small-animal PET/CT scanner (Bruker After imaging, the mice were euthanized, the tissues of interest were harvested and probe homing was analyzed using a Cobra II automated gamma counter (Packard) and expressed as percentage of the injected dose per gram tissue (%ID/g tissue).
To test MMAE-BLMP6 efficacy for cancer suppression, we first used the B16F10 experimental lung metastasis model. […]

For data set [6], the system named is MDA-MB-231-luc-GFP lung metastases. Put plainly: MDA-MB-231 experimental lung metastasis model, treatment. It counts as in vivo, mouse.
From the text: as §1
To test MMAE-BLMP6 efficacy for cancer suppression, we first used the B16F10 experimental lung metastasis model. Three MMAE-BLMP6 (50 ug) or PBS subcutaneous injections were done over days 1–6 and four additional MMAE-BLMP6 (100 ug) or PBS subcutaneous injections on days 8–18 after iv injection of B16F10-luc cells (Figure 5A). […] While vehicle-treated mice began dying on day 15, with most animals perishing by day 21, MMAE-BLMP6-treated mice only started showing metastases on day 15 by IVIS and survived 2 to 3 days longer (Figure 5A). In the MDA-MB-231-luc-GFP experimental lung metastasis model, a similar trend was observed (Figure 5C).

Data set [7] concerns the target FBLN4 of mouse 4T1 cancer cells (mouse (endogenous in 4T1)) (UniProt Q9WVJ9).
For data set [8], the target named is T2, Fibulin-4 protein (Abcam, 182808) (UniProt O95967 24-443).
T2 chain: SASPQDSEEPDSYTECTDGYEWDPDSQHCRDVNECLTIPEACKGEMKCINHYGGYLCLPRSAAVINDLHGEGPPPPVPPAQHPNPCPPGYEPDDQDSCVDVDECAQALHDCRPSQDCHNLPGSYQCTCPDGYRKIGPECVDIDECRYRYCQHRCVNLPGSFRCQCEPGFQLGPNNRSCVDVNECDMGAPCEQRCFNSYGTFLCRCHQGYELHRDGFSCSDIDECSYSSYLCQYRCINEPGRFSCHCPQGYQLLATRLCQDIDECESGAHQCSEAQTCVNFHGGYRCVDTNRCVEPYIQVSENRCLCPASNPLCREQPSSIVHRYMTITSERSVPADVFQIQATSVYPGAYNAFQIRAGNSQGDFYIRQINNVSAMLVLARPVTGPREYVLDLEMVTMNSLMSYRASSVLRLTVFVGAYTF
In words: BLI. In general terms: BLI is a label-free optical method that tracks binding on a fibre tip over time.

Bridge positions count the residues as written; N and C are the ends. Square brackets hold non-standard residues; d marks the D form. Ends that are not written are not given here. * marks the point of attachment. Biotin = O=C1N[C@H]2[C@H](CS[C@H]2CCCCC(=O)*)N1

Regarding “AZDye555-BLMP6 (AZDye555-CRAGVGRGC; bridge 1-9 (inferred))”, in data set [1], the “binding to HEK293 cells ectopically expressing FBLN4” value is “confirmed to bind” and the “binding to non-transfected control HEK293 cells” value is reported as “not to non-transfected control cells”. Also, in data set [2] (12.5 ug/ml overlay, 2 hr, paraffin sections), the “binding to lung sections from mice grafted with 4T1 cells” value is “selectively bound to metastatic lesions but not to normal lung”. Moreover, the “binding to lung sections from mice with MDA-MB-231 experimental lung metastases” value in data set [2] (12.5 ug/ml overlay, paraffin sections, N-cadherin IF) is reported as “binds to a subpopulation of tumor cells expressing N-cadherin”. Moreover, the “binding across human breast cancer tissue array cores” value in data set [2] (human FFPE tissue arrays: 50 primary, 40 metastatic, 10 adjacent control biopsies) is given as “largely concordant with N-cadherin expression”.

For “CRAGVGRGC (disulfide 1-9 (inferred)) [BLMP6, cyclic peptide … that homes to disseminating tumor cells]”, in data set [3], the “FBLN4 isolated from 4T1 cell proteins on peptide-loaded beads, immunoblotting with anti-FBLN4 antibodies” value is “the predicted 49 kDa band was observed”.

As for “MMAE-BLMP6: monomethyl auristatin E coupled to all-D BLMP6 via PEG4, valine-citrulline and PAB linker ([dC][dR][dA]G[dV]G[dR]G[dC]; disulfide 1-9 (inferred); also: MMAE coupled via PAB-Cit-Val-PEG4 linker, site not given here)”, the “time after which a secondary degradation peak appeared in mouse serum” value in data set [4] was 6 h. Also, the “stability in mouse serum, peaks observed” value in data set [4] (after 1 hr) was “single MMAE-BLMP6 peak was observed”. Further, in data set [5] (sc 50 ug x3 over days 1-6 and 100 ug x4 on days 8-18, versus PBS, at day 5), the “metastasis burden, bioluminescence analysis by IVIS” value was “metastasis suppression”. Also, in data set [5] (sc 50 ug x3 then 100 ug x4, vehicle mice began dying on day 15, most by day 21), the “survival longer than vehicle-treated mice” value fell in the range of 2 to 3 days. The “survival beyond controls, one treated mouse” value in data set [6] (MDA-MB-231-luc-GFP iv, one of the treated mice) stood at 9 days. Also, the “metastasis growth, bioluminescence imaging” value in data set [6] (MDA-MB-231-luc-GFP iv, sc treatment versus PBS, days 12 and 21) is given as “suppressed metastasis growth”. Also, the “tolerability, clinical observation” value in data set [6] (athymic mice, 50 to 100 μg sc, at day 15, treatment interrupted 6 days, re-initiated at 15 μg daily) was “signs of sickness”.

B1: MMAE-BLMP6 (peptide)
peptide: [dC][dR][dA]G[dV]G[dR]G[dC]
modifications: disulfide 1-9 (inferred); also: MMAE coupled via PAB-Cit-Val-PEG4 linker, site not given here
In data set [7], B1 gave an IC50 of cell viability (CellTiter-Blue), 4T1 cells, 24 h after adding MMAE-BLMP6 of 500 nM.

As usually defined, the koff is the first-order rate constant of dissociation. Low readings indicate slow dissociation, high ones fast dissociation. With Biotin-CRAGVGRGC (disulfide 1-9 (inferred)) [biotinylated BLMP6, cyclic peptide CRAGVGRGC], in data set [8], the koff stood at 3.18e-07 s⁻¹.
